# Test system: LL-37
# Assay: LL-37 expression (qPCR) in OKF6 gingival epithelial cells after overnight treatment
# Type: cell-based
# Conditions: topical application to gingival epithelial cells (GEC)
# Procedure: OKF6 Cells (Gingival epithelial cells) were grown in 6 well tissue culture plates. Cells monolayer was treated with indicated doses (FIG. 1) of Vitamin D3 or phenylbutyrate alone or in combinations of two and cells were further incubated in tissue culture incubator for overnight incubation. After overnight incubation, cells were harvested in RNA lysis buffer. Lysates were processed for RNA isolation using Qiagen RNA isolation kit. RNA was processed for c-DNA preparation and further amplified (qPCR) using LL-37 (Hs 01011708_m1), Cyp24A1 (Hs00989018_m1), GAPDH (Hs 99999905_m1) Taqman genes specific probes. QPCR data was analyzed for fold induction of LL-37 expression and relative difference of expressions was plotted. […] As illustrated by the data described in FIGS. 1 and 2, the inventive combinations of the present invention provide a synergistic increase in LL-37 and CYP24A1, respectively.
smiles,measurement,value
"C=C1/C(=C\C=C2/CCC[C@]3(C)[C@@H]([C@H](C)CCCC(C)(C)O)CC[C@@H]23)C[C@@H](O)C[C@@H]1O [1,25(OH)2D3, 1,25-dihydroxycholecalciferol]",expression of anti-microbial peptide (LL-37) proteins,enhanced expression
